The results in this text go back to patent publication US20120071537A1, “New Oral Formulation” (priority 1998, published 2012).

Data set [1] is described as follows: Solubility in water. Format: physicochemical. The note with it: at 25° C. in water. The method, then: By “poorly soluble” is meant an active agent having a solubility in aqueous media more than 0.001% and less than 10%, e.g., less than 1%, e.g., less than 0:1%, e.g., less than 0.05%, e.g., less than 0.02%, at room temperature, e.g., 25° C.
(§1) which is referred hereinafter as Compound A, or a pharmaceutically acceptable salt form thereof, e.g., the hydrogen maleate (hereinafter “hml”) salt.

Data set [2] can be described thus: Acid sensitivity (degradation under slightly acidic conditions). Format: physicochemical.
Description: Examples of compounds are known in the art and may be ascertained by routine experimentation.
as §1

A short description of data set [3]: Dissolution characteristics of oral tablet composition in water or USP buffers pH 6.8 and 7.5. Format: physicochemical. The note with it: composition comprising Tegaserod. The text has this:
In a further aspect the present invention provides a pharmaceutical oral, e.g., tablet, composition comprising one of the active agents cited above, e.g., a 5-HT4 agonist, partial agonist or antagonist, e.g., Tegaserod, said composition having dissolution characteristics in water or in USP buffers pH 6.8 and 7.5 of
For example a composition according to the invention, e.g., comprising Tegaserod as the active agent, may have dissolution characteristics in water or in USP buffers pH 6.8 and 7.5 of: […]

Data set [4] relates to rectal afferents. Nature of the data set: Single unit activity of rectal afferent fibres during barostat-controlled rectal distension in decerebrate cats. The format is in vivo. Particulars: i.v., incremental doses from 0.15 to 1.2 mg/kg. On the procedure:
Decerebrate, anaesthesia-free cats under continuous monitoring of blood pressure are paralysed by alcuronium chloride dissolved in rheomacrodex i.v. (200 μg/kg initially and supplementary doses of 100 μg/kg, if necessary), and artificially ventilated. Single unit activity of afferent fibres are recorded in a monopolar fashion from peripheral endings of centrally cut filaments of sacral dorsal roots. Tension receptors are identified by probing of their receptive fields in the wall of the mobilised rectum. Thereafter, the response of the units to barostat-controlled rectal ramp-distension is determined. The quantitative response characteristics of the units is evaluated with respect to distension pressure and resulting rectal diameter. Alternatively, the response of the units to pressure-induced peristalsis is measured. After obtaining 2 distension profiles (5 min each) and/or 10 min of peristalsis under control conditions, a 5-HT4 receptor agonist, partial agonist or antagonist, e.g., Compound A, or vehicle is applied i.v. and the protocol is repeated. Subsequently, the activity of additional units is recorded in the presence of a 5-HT4 receptor agonist, partial agonist or antagonist, e.g., Compound A, or vehicle according to the distension/peristalsis protocol. […]

For data set [5], the system named is sensory perception of rectal distension. Nature of the data set: Colonic perfusion manometry with balloon distension, sensation threshold in fasted healthy volunteers. The format is in vivo. The note with it: 2-12 mg p.o., assessed 30 to 90 min after dosing. On the procedure: Intraluminal pressures and reflexes in the last 60 cm of the colon of 10 fasted healthy volunteers are measured by means of perfusion manometry. Three latex balloons positioned at 50, 30 and 10 cm, allow volume stimulation. Basal values of colonic intraluminal pressures and reflexes are established. Subsequently, reflex inhibitory relaxations of the internal anal sphincter is triggered by inflating the balloons by 10 ml increments up to a maximum volume of 150 ml. During the inflation phase, two parameters are evaluated: a) the reflux threshold (volume able to induce a substantial pressure decrease of the internal anal sphincter); and b) the sensation threshold (volume able to induce a conscious defecation reflex). After the basal recordings, each subject is given a 5-HT4 receptor agonist, partial agonist or antagonist, e.g., Compound A, p.o. and 30 to 90 min later the colonic intraluminal pressure and reflexes are assessed again by the same method.

For data set [6], the system named is equine intestine. Nature of the data set: Gastro-intestinal motility after colic surgery (post-operative ileus) in horses. The format is in vivo. The note with it: i.v. or i.m., 0.01 to 10 mg/kg every 8 to 24 h. On the procedure: 20 horses having colic syndrome are submitted to abdominal surgery. During surgery supportive therapy is applied to them. At the end of surgery, a specific 5-HT4 receptor agonist or partial agonist, e.g., Compound A, is administered i.v. or i.m., e.g. at a dose of from 0.01 to 10 mg/kg. This dose is repeated every 8 to 24 h until spontaneous defecation is observed. Gastro-intestinal motility is evaluated based e.g. on the presence or absence of gastric reflux as determined by nasogastric intubation, occurrence of borborygmi and timing of defecation after the first injection of the test compound.

SMILES strings stand for the structures.

Take `CCCCCNC(=N)NN=Cc1c[nH]c2ccc(OC)cc12` [Compound A, 3-(5-methoxy-1H-indol-3-yl-methylene)-N-pentylcarbazimidamide]: the solubility entry in data set [1] was “about 0.02%”. In data set [2], the acid sensitivity result was “acid sensitive”. Also, the “amount (percentage) dissolved” value came out at 48.9 percentage in data set [3] (time 5 minutes), 95.5 percentage in data set [3] (time 15 minutes), 99.7 percentage in data set [3] (time 30 minutes) and 100 percentage in data set [3] (time 60 minutes). For the same compound, in data set [4], the “distension pressure at which the most prominent inhibition of firing occurs” value is listed as 50 mmHg. The “dose giving half-maximal reduction of the firing rate of rectal afferents” value in data set [4] is “about 0.7 mg/kg”. Moreover, in data set [5], the “sensation threshold (volume able to induce a conscious defecation reflex)” value is “significantly reduced”. For the same compound, the “restoration of normal motility function of the equine intestine” value in data set [6] is “effective in restoring normal motility function”.
